The values that follow come from PubChem BioAssay (NCI).

“And” between values parts separate entries of the source, which are not always exact repeats. Identical values can stand only once.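 Interpolation was linear, between the two tested concentrations surrounding the appropriate level; five concentrations were tested over 48 hours in 96-well plates. Abbreviation: GI50, concentration required for 50% inhibition of growth. The concentration for full growth arrest is given as TGI.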 Where only a bound is given, the exact number is not on record here.

Among the test systems are HCT-15 colon; OVCAR-3 ovarian; OVCAR-4 ovarian; HCT-116 colon; COLO 205 colon; HOP-62 NSCLC; SK-MEL-28 melanoma; SNB-75 CNS; SK-OV-3 ovarian; NCI-H460 lung.
Assay in all cases: NCI tumour cell line growth inhibition, 48 h

In the case of `COc1cc2ccnc3c2c(c1OC)-c1ccc(=O)ccc1-3`, the GI50 in the assay with HCT-15 colon was 22.5 µM; in the assay with OVCAR-3 ovarian, 21.8 µM; with OVCAR-4 ovarian, 21.7 µM; in the assay with HCT-116 colon, 5.25 µM; in the assay with COLO 205 colon, 35.2 µM; with HOP-62 NSCLC, 32.5 µM. Besides, the GI50 is 23.7 µM in the assay with SK-MEL-28 melanoma, 25.9 µM with SNB-75 CNS, 41.5 µM in the assay with SK-OV-3 ovarian and 20.7 µM in the assay on NCI-H460 lung. The TGI in the assay with HCT-15 colon is 77.1 µM; in the assay with OVCAR-3 ovarian, 56.2 µM; in the assay on OVCAR-4 ovarian, 74.7 µM; with HCT-116 colon, 34.5 µM; in the assay with COLO 205 colon, 97.8 µM; in the assay on HOP-62 NSCLC, above 100 µM. Moreover, the TGI is 66.9 µM with SK-MEL-28 melanoma, 80.1 µM in the assay with SNB-75 CNS, above 100 µM in the assay with SK-OV-3 ovarian and above 100 µM in the assay on NCI-H460 lung.

As for `CCN(C(=O)CCl)C(C)(C)C(SSSC(c1ccc(Cl)cc1)C(C)(C)N(CC)C(=O)CCl)c1ccc(Cl)cc1` (centres undefined), the GI50 with HCT-15 colon was 2.84 µM; in the assay on OVCAR-3 ovarian, 8.46 µM; in the assay on OVCAR-4 ovarian, 5.04 µM; in the assay with HCT-116 colon, 4.47 µM; in the assay on COLO 205 colon, 7.21 µM; in the assay on HOP-62 NSCLC, 8.33 µM. Besides, the GI50 in the assay with SK-MEL-28 melanoma is 2.05 µM; in the assay on SNB-75 CNS, 13.3 µM; with SK-OV-3 ovarian it was 15.3 µM; in the assay with NCI-H460 lung, 7.34 µM. Further, the TGI with HCT-15 colon was 12.8 µM; with OVCAR-3 ovarian, 21.6 µM; in the assay on OVCAR-4 ovarian, 19.6 µM; in the assay with HCT-116 colon, 18.5 µM; in the assay on COLO 205 colon, 24.8 µM; in the assay on HOP-62 NSCLC, 23.4 µM. Besides, the TGI with SK-MEL-28 melanoma came out at 4.31 µM; with SNB-75 CNS it was 29.5 µM; with SK-OV-3 ovarian it was 31.5 µM; in the assay on NCI-H460 lung, 20.9 µM.

On to `COc1cc(C(=O)C/C(CCC(=O)Nc2ccc(Cl)cc2Cl)=N/NC(=O)C(N)=O)ccc1O`, for which the TGI in the assay on HCT-15 colon, in the assay on OVCAR-3 ovarian, in the assay on OVCAR-4 ovarian, in the assay with HCT-116 colon, with COLO 205 colon and in the assay on HOP-62 NSCLC was above 100 µM each time. The TGI with SK-MEL-28 melanoma was above 100 µM; in the assay on SNB-75 CNS it was 43.7 µM; in the assay on SK-OV-3 ovarian, above 100 µM; in the assay with NCI-H460 lung, above 100 µM.

With `COc1ccc2[nH]c(=O)c(/C=C/C(=O)/C=C/c3ccc(O)c(OC)c3)cc2c1`, the GI50 in the assay with HCT-15 colon is 1.41 µM; in the assay on OVCAR-3 ovarian it was 1.18 µM; in the assay with OVCAR-4 ovarian, 2.91 µM; in the assay on HCT-116 colon, 0.164 µM; with COLO 205 colon, 1.6 µM; in the assay on HOP-62 NSCLC it was 2.03 µM. In addition, the GI50 is 1.69 µM with SK-MEL-28 melanoma, 2.96 µM with SNB-75 CNS, 2.79 µM in the assay on SK-OV-3 ovarian and 2.04 µM with NCI-H460 lung. The TGI with HCT-15 colon was 3.81 µM; in the assay with OVCAR-3 ovarian, 2.55 µM; in the assay on OVCAR-4 ovarian it was 29.4 µM; in the assay on HCT-116 colon, 0.338 µM; in the assay on COLO 205 colon, 3.81 µM; in the assay on HOP-62 NSCLC, 4.75 µM. Also, the TGI in the assay on SK-MEL-28 melanoma turned out to be 3.25 µM; in the assay on SNB-75 CNS, 14.4 µM; with SK-OV-3 ovarian, 9.82 µM; in the assay with NCI-H460 lung, 5 µM.

Consider `C/C(=N\NC(=O)c1ccccc1O)c1cccc(/C(C)=N/NC(=O)c2ccccc2O)n1`, for which the GI50 is 0.568 µM in the assay on HCT-15 colon; 1.06 µM and 0.362 µM in the assay on OVCAR-3 ovarian; 15.9 µM in the assay with OVCAR-4 ovarian; 5.85 µM and 0.619 µM in the assay with HCT-116 colon; 0.467 µM with HOP-62 NSCLC; 24.4 µM and > 100 µM with SK-MEL-28 melanoma. Further, the GI50 in the assay with SNB-75 CNS is 23 µM; in the assay on SK-OV-3 ovarian, 1.31 µM; in the assay with NCI-H460 lung it was 0.535 µM. For the same compound, the TGI with HCT-15 colon was above 100 µM; in the assay with OVCAR-3 ovarian, 24.3 µM and > 53.5 µM; in the assay with OVCAR-4 ovarian, above 100 µM; in the assay on HCT-116 colon, 66.9 µM and 28.4 µM; with COLO 205 colon, above 100 µM; in the assay with HOP-62 NSCLC it was 31.7 µM and 6.42 µM. Also, the TGI is above 100 µM in the assay with SK-MEL-28 melanoma; 33.5 µM and > 61.9 µM in the assay with SNB-75 CNS; 36.3 µM and > 100 µM with SK-OV-3 ovarian; 74.1 µM and > 100 µM with NCI-H460 lung.

As to `C/C1=C\C/C=C(\C)[C@H]2CC(CC/C(C)=C/CC1)[C@@](C)(CO)O2`, the GI50 was above 100 µM in the assay with HCT-15 colon; above 100 µM in the assay with OVCAR-3 ovarian; above 100 µM in the assay on OVCAR-4 ovarian; 44.5 µM in the assay on HCT-116 colon; above 100 µM with COLO 205 colon; 47.6 µM in the assay on HOP-62 NSCLC. For the same compound, the GI50 was above 100 µM in the assay with SK-MEL-28 melanoma, above 100 µM in the assay with SNB-75 CNS, above 100 µM in the assay on SK-OV-3 ovarian and 74.4 µM in the assay on NCI-H460 lung. The TGI in the assay on HCT-15 colon, with OVCAR-3 ovarian, in the assay with OVCAR-4 ovarian, in the assay on HCT-116 colon, with COLO 205 colon and in the assay on HOP-62 NSCLC was above 100 µM in each case. Also, the TGI with SK-MEL-28 melanoma, with SNB-75 CNS, in the assay with SK-OV-3 ovarian and in the assay on NCI-H460 lung was above 100 µM each time.

Turning to `CCC[CH2][Sn]([CH2]CCC)([O]C(=O)c1cc(OC)c(OC)cc1OC)[O]C(=O)c1cc(OC)c(OC)cc1OC`, the GI50 was 1.26 µM in the assay on HCT-15 colon; 1.3 µM in the assay on OVCAR-3 ovarian; 1.9 µM in the assay on OVCAR-4 ovarian; 1.51 µM with HCT-116 colon; 1.25 µM with COLO 205 colon; 2.35 µM in the assay on HOP-62 NSCLC. In addition, the GI50 in the assay with SK-MEL-28 melanoma is 0.971 µM; in the assay with SNB-75 CNS, 0.402 µM; in the assay on SK-OV-3 ovarian, 2.14 µM; in the assay on NCI-H460 lung it was 3.08 µM. The TGI in the assay with HCT-15 colon stood at 2.92 µM; in the assay on OVCAR-3 ovarian, 2.86 µM; in the assay on OVCAR-4 ovarian it was 4.31 µM; in the assay on HCT-116 colon, 2.85 µM; in the assay with COLO 205 colon, 2.6 µM; with HOP-62 NSCLC, 4.41 µM. The TGI in the assay with SK-MEL-28 melanoma was 2.23 µM; in the assay on SNB-75 CNS it was 1.53 µM; in the assay with SK-OV-3 ovarian, 5.51 µM; in the assay with NCI-H460 lung, 12.1 µM.

As for `CN(C)CCCNc1ccnc2cc([N+](=O)[O-])ccc12`, the TGI in the assay on HCT-15 colon was found to be 26.7 µM; in the assay with OVCAR-3 ovarian, 29.9 µM; with OVCAR-4 ovarian, 12.8 µM; with HCT-116 colon, 23.7 µM; with COLO 205 colon it was 7.9 µM; in the assay with HOP-62 NSCLC, 42.3 µM. The TGI is 97.5 µM in the assay with SK-MEL-28 melanoma, 48.9 µM in the assay on SNB-75 CNS, 62.3 µM with SK-OV-3 ovarian and 17.7 µM in the assay with NCI-H460 lung.
